What is called AC50 is the midpoint of the concentration-response curve, whichever way the signal moves.

SMILES strings stand for the structures.

In this assay the target is T1, human PAH with the R408W mutation (Homo sapiens, UniProt P00439, R408W).
T1 construct: expressed in transfected cells
T1 sequence (P00439 1-452 R408W): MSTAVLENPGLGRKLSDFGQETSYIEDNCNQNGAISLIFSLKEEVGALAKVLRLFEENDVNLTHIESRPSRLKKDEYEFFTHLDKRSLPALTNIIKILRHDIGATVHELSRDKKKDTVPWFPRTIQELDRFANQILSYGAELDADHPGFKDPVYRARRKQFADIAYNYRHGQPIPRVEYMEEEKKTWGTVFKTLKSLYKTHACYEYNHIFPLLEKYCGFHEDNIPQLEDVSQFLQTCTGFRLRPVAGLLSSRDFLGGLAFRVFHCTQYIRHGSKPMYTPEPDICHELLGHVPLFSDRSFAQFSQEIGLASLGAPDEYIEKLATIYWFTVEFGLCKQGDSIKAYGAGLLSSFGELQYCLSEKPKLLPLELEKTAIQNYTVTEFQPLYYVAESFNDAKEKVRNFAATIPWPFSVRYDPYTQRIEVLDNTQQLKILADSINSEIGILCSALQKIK
Put plainly: Cell Based Phenylalanine Flux Assay. The settings on record: A375 cells expressing human R408W PAH; 24 hrs compound incubation; 13C-Tyrosine by LC-MS; average where tested multiple times; read-out: AC50.
As to `CC(C)(O)c1noc(C(=O)N2CCc3[nH]cnc3[C@H]2c2cc3ccccc3cn2)n1` [Example 422, (R)-(3-(2-hydroxypropan-2-yl)-1,2,4-oxadiazol-5-yl)(4-(isoquinolin-3-yl)-6,7-dihydro-1H-imidazo[4,5-c]pyridin-5(4H)-yl)methanone], the AC50 lay within 1000 to 5000 nM.
Then `Cn1nc(C(F)F)nc1C(=O)N1CCc2[nH]cnc2[C@H]1c1cc2ccccc2cn1` [Example 423, (R)-(3-(difluoromethyl)-1-methyl-1H-1,2,4-triazol-5-yl)(4-(isoquinolin-3-yl)-6,7-dihydro-1H-imidazo[4,5-c]pyridin-5(4H)-yl)methanone], with under 500 nM; and `O=C(c1nnc(N2CC(F)C2)o1)N1CCc2[nH]cnc2[C@H]1c1cc2ccccc2cn1` [Example 424, (R)-(5-(3-fluoroazetidin-1-yl)-1,3,4-oxadiazol-2-yl)(4-(isoquinolin-3-yl)-6,7-dihydro-1H-imidazo[4,5-c]pyridin-5(4H)-yl)methanone], with under 500 nM.
Then `O=C(c1nnc(N2CCC(F)CC2)o1)N1CCc2[nH]cnc2[C@H]1c1cc2ccccc2cn1` [Example 425, (R)-(5-(4-fluoropiperidin-1-yl)-1,3,4-oxadiazol-2-yl)(4-(isoquinolin-3-yl)-6,7-dihydro-1H-imidazo[4,5-c]pyridin-5(4H)-yl)methanone], with under 500 nM.
Then `O=C(c1nnc(-c2ccn(C(F)F)n2)o1)N1CCc2[nH]cnc2[C@H]1c1cc2ccccc2cn1` [Example 426, (R)-(5-(1-(difluoromethyl)-1H-pyrazol-3-yl)-1,3,4-oxadiazol-2-yl)(4-(isoquinolin-3-yl)-6,7-dihydro-1H-imidazo[4,5-c]pyridin-5(4H)-yl)methanone], with under 500 nM; and `C[C@H]1CN(C(=O)c2nnc(C(C)(C)C)o2)[C@@H](c2cc3ccccc3cn2)c2nc[nH]c21` [Example 427, (5-(tert-butyl)-1,3,4-oxadiazol-2-yl)((4S,7S)-4-(isoquinolin-3-yl)-7-methyl-6,7-dihydro-1H-imidazo[4,5-c]pyridin-5(4H)-yl)methanone], with 1000 to 5000 nM.
Take `C[C@H]1CN(C(=O)c2nnc(C(C)(C)C)o2)[C@H](c2cc3ccccc3cn2)c2nc[nH]c21` [Example 428, (5-(tert-butyl)-1,3,4-oxadiazol-2-yl)((4R,7S)-4-(isoquinolin-3-yl)-7-methyl-6,7-dihydro-1H-imidazo[4,5-c]pyridin-5(4H)-yl)methanone]: the half-maximal activity concentration (AC50) is 500 to 1000 nM.
With `C[C@@H]1CN(C(=O)c2nnc(C(C)(C)C)o2)[C@@H](c2cc3ccccc3cn2)c2nc[nH]c21` [Example 429, (5-(tert-butyl)-1,3,4-oxadiazol-2-yl)((4S,7R)-4-(isoquinolin-3-yl)-7-methyl-6,7-dihydro-1H-imidazo[4,5-c]pyridin-5(4H)-yl)methanone], the concentration at half-maximal activity (AC50) was 1000 to 5000 nM.
`C[C@@H]1CN(C(=O)c2nnc(C(C)(C)C)o2)[C@H](c2cc3ccccc3cn2)c2nc[nH]c21` [Example 430, (5-(tert-butyl)-1,3,4-oxadiazol-2-yl)((4R,7R)-4-(isoquinolin-3-yl)-7-methyl-6,7-dihydro-1H-imidazo[4,5-c]pyridin-5(4H)-yl)methanone]: the half-maximal activity concentration (AC50) is under 500 nM.
Next, `O=C(c1cnn2ccccc12)N1CCc2[nH]cnc2[C@H]1c1cc2ccccc2cn1` [Example 431, (R)-(4-(isoquinolin-3-yl)-6,7-dihydro-1H-imidazo[4,5-c]pyridin-5(4H)-yl)(pyrazolo[1,5-a]pyridin-3-yl)methanone]: under 500 nM.
With `O=C(c1nnc(N2CCOCC2)o1)N1CCc2[nH]cnc2[C@H]1c1cc2ccccc2cn1` [Example 433, (R)-(4-(isoquinolin-3-yl)-6,7-dihydro-1H-imidazo[4,5-c]pyridin-5(4H)-yl)(5-morpholino-1,3,4-oxadiazol-2-yl)methanone], the AC50 lay within 500 to 1000 nM.
Next, `CC(C)(C)c1ncc(C(=O)N2CCc3[nH]cnc3[C@H]2c2cc3ccccc3cn2)o1` [Example 435, (R)-(2-(tert-butyl)oxazol-5-yl)(4-(isoquinolin-3-yl)-6,7-dihydro-1H-imidazo[4,5-c]pyridin-5(4H)-yl)methanone]: under 500 nM.
Then `O=C(c1nnc(-c2ncccc2F)o1)N1CCc2[nH]cnc2[C@H]1c1cc2ccccc2cn1` [Example 437, (R)-(5-(3-fluoropyridin-2-yl)-1,3,4-oxadiazol-2-yl)(4-(isoquinolin-3-yl)-6,7-dihydro-1H-imidazo[4,5-c]pyridin-5(4H)-yl)methanone], with under 500 nM; and `COc1ccc(-c2nnc(C(=O)N3CCc4[nH]cnc4[C@H]3c3cc4ccccc4cn3)o2)nc1` [Example 438, (R)-(4-(isoquinolin-3-yl)-6,7-dihydro-1H-imidazo[4,5-c]pyridin-5(4H)-yl)(5-(5-methoxypyridin-2-yl)-1,3,4-oxadiazol-2-yl)methanone], with under 500 nM.
Then `Cc1ccc(-c2nnc(C(=O)N3CCc4[nH]cnc4[C@H]3c3cc4ccccc4cn3)o2)nc1` [Example 439, (R)-(4-(isoquinolin-3-yl)-6,7-dihydro-1H-imidazo[4,5-c]pyridin-5(4H)-yl)(5-(5-methylpyridin-2-yl)-1,3,4-oxadiazol-2-yl)methanone], with under 500 nM; and `O=C(c1nnc(-c2cnn(C(F)F)c2)o1)N1CCc2[nH]cnc2[C@H]1c1cc2ccccc2cn1` [Example 440, (R)-(5-(1-(difluoromethyl)-1H-pyrazol-4-yl)-1,3,4-oxadiazol-2-yl)(4-(isoquinolin-3-yl)-6,7-dihydro-1H-imidazo[4,5-c]pyridin-5(4H)-yl)methanone], with under 500 nM; and `Cn1ccc(-c2nnc(C(=O)N3CCc4[nH]cnc4[C@H]3c3cc4ccccc4cn3)o2)n1` [Example 441, (R)-(4-(isoquinolin-3-yl)-6,7-dihydro-1H-imidazo[4,5-c]pyridin-5(4H)-yl)(5-(1-methyl-1H-pyrazol-3-yl)-1,3,4-oxadiazol-2-yl)methanone], with under 500 nM.
On to `O=C(c1nnc(-c2ccc(C(F)(F)F)cn2)o1)N1CCc2[nH]cnc2[C@H]1c1cc2ccccc2cn1` [Example 442, (R)-(4-(isoquinolin-3-yl)-6,7-dihydro-1H-imidazo[4,5-c]pyridin-5(4H)-yl)(5-(5-(trifluoromethyl)pyridin-2-yl)-1,3,4-oxadiazol-2-yl)methanone], for which the half-maximal activity concentration (AC50) was under 500 nM.
Next, `Cn1cnc(-c2nnc(C(=O)N3CCc4[nH]cnc4[C@H]3c3cc4ccccc4cn3)o2)c1` [Example 443, (R)-(4-(isoquinolin-3-yl)-6,7-dihydro-1H-imidazo[4,5-c]pyridin-5(4H)-yl)(5-(1-methyl-1H-imidazol-4-yl)-1,3,4-oxadiazol-2-yl)methanone]: under 500 nM; `Cn1cncc1-c1nnc(C(=O)N2CCc3[nH]cnc3[C@H]2c2cc3ccccc3cn2)o1` [Example 444, (R)-(4-(isoquinolin-3-yl)-6,7-dihydro-1H-imidazo[4,5-c]pyridin-5(4H)-yl)(5-(1-methyl-1H-imidazol-5-yl)-1,3,4-oxadiazol-2-yl)methanone]: 500 to 1000 nM; `O=C(c1nnc(-c2cccnc2)o1)N1CCc2[nH]cnc2[C@H]1c1cc2ccccc2cn1` [Example 445, (R)-(4-(isoquinolin-3-yl)-6,7-dihydro-1H-imidazo[4,5-c]pyridin-5(4H)-yl)(5-(pyridin-3-yl)-1,3,4-oxadiazol-2-yl)methanone]: under 500 nM.

Values taken from US20250262201A1, “COMPOUNDS AND METHODS USEFUL FOR STABILIZING PHENYLALANINE HYDROXYLASE MUTATIONS” (Agios Pharmaceuticals, Inc., priority 2022, published 2025).
